PMC7924852, “The Emericellipsins A–E from an Alkalophilic Fungus Emericellopsis alkalina Show Potent Activity against Multidrug-Resistant Pathogenic Fungi” (Journal of Fungi, 2021)

How the values were obtained:
A. fumigatus 390 m [1] = assay: Broth two-fold microdilution MIC (CLSI); assay type: cell-based, Aspergillus fumigatus; details: A. fumigatus 390 m clinical isolate; RPMI 1640 pH 7.0, 35 °C, 48 h
A. terreus 3 K [2] = assay: Disc-diffusion antifungal assay; assay type: cell-based; details: 40 µg/disc
A. terreus 497 [3] = assay: Disc-diffusion antifungal assay; assay type: cell-based; details: 40 µg/disc; A. terreus 497, pathogenic clinical isolate
A. terreus 497 [4] = assay: Broth two-fold microdilution MIC (CLSI); assay type: cell-based; details: A. terreus 497 clinical isolate; RPMI 1640 pH 7.0, 35 °C, 48 h
[5] = tested on: reference and clinical strains of Aspergillus; assay: Disc-diffusion antifungal assay, Aspergillus strains; assay type: cell-based; details: disc-diffusion, reference and clinical strains of Aspergillus
A. niger ATCC 16404 = assay: Broth two-fold microdilution MIC (CLSI); assay type: cell-based, Aspergillus niger; details: A. niger ATCC 16404; RPMI 1640 pH 7.0, 35 °C, 48 h, no visible growth
[6] = tested on: isolates of Aspergillus spp.; assay: Broth microdilution MIC, ranges over mould isolates; assay type: cell-based; details: range over opportunistic and clinical isolates of Aspergillus spp. (Table 4)
A. fumigatus VKM F-37 [7] = assay: Disc-diffusion antifungal assay; assay type: cell-based, Aspergillus fumigatus; details: 40 µg/disc
A. niger 1133 m [8] = assay: Broth two-fold microdilution MIC (CLSI); assay type: cell-based, Aspergillus niger; details: A. niger 1133 m clinical isolate; RPMI 1640 pH 7.0, 35 °C, 48 h
A. fumigatus VKM F-37 [9] = assay: Broth two-fold microdilution MIC (CLSI); assay type: cell-based, Aspergillus fumigatus; details: A. fumigatus VKM F-37; RPMI 1640 pH 7.0, 35 °C, 48 h
[10] = tested on: Aspergillus niger ATCC 16404; assay: Disc-diffusion antifungal assay; assay type: cell-based; details: 40 µg/disc; A. niger ATCC 16404
A. niger 1133 m [11] = assay: Disc-diffusion antifungal assay; assay type: cell-based, Aspergillus niger; details: 40 µg/disc, pathogenic clinical isolate
A. fumigatus 390 m [12] = assay: Disc-diffusion antifungal assay; assay type: cell-based, Aspergillus fumigatus; details: 40 µg/disc, pathogenic clinical isolate
A. terreus 3 K [13] = assay: Broth two-fold microdilution MIC (CLSI); assay type: cell-based; details: A. terreus 3 K; RPMI 1640 pH 7.0, 35 °C, 48 h

Methyldecanoyl-MePro-AHMOD-Ala-Aib-Ile-Iva-βAla-Aib-Glyol [EmiE, emericellipsin E, homologue of emericellipsin A, nonribosomal peptaibol]
Minimal Inhibitory Concentration (MIC) (A. fumigatus 390 m [1]): ˃64 µg/mL
Zone of Inhibition (A. terreus 3 K [2]): 0 mm
Zone of Inhibition (A. terreus 497 [3]): 0 mm
Minimal Inhibitory Concentration (MIC) (A. terreus 497 [4]): 64 µg/mL
antifungal activity against Aspergillus strains (in words) [5]: totally inactive
Minimal Inhibitory Concentration (MIC) (A. niger ATCC 16404): ˃64 µg/mL
MIC range [6]: > 64 µg/mL
Zone of Inhibition (A. fumigatus VKM F-37 [7]): 0 mm
Minimal Inhibitory Concentration (MIC) (A. niger 1133 m [8]): ˃64 µg/mL
Minimal Inhibitory Concentration (MIC) (A. fumigatus VKM F-37 [9]): ˃64 µg/mL
Zone of Inhibition [10]: 0 mm
Zone of Inhibition (A. niger 1133 m [11]): 0 mm
Zone of Inhibition (A. fumigatus 390 m [12]): 0 mm
Minimal Inhibitory Concentration (MIC) (A. terreus 3 K [13]): 32 µg/mL

Methyldecanoyl-MePro-AHMOD-Ala-Iva-Ile-Iva-βAla-Alaol-Glyol [EmiD, emericellipsin D, homologue of emericellipsin A, nonribosomal peptaibol]
Minimal Inhibitory Concentration (MIC) (A. fumigatus 390 m [1]): 32 µg/mL
Zone of Inhibition (A. terreus 3 K [2]): 0 mm
Zone of Inhibition (A. terreus 497 [3]): 0 mm
Minimal Inhibitory Concentration (MIC) (A. terreus 497 [4]): 16 µg/mL
antifungal activity against Aspergillus strains (in words) [5]: totally inactive
Minimal Inhibitory Concentration (MIC) (A. niger ATCC 16404): ˃64 µg/mL
MIC range [6]: 16 to 32 µg/mL
Zone of Inhibition (A. fumigatus VKM F-37 [7]): 0 mm
Minimal Inhibitory Concentration (MIC) (A. niger 1133 m [8]): ˃64 µg/mL
Minimal Inhibitory Concentration (MIC) (A. fumigatus VKM F-37 [9]): 32 µg/mL
Zone of Inhibition [10]: 0 mm
Zone of Inhibition (A. niger 1133 m [11]): 0 mm
Zone of Inhibition (A. fumigatus 390 m [12]): 0 mm
Minimal Inhibitory Concentration (MIC) (A. terreus 3 K [13]): 16 µg/mL
